In PMC5017749, “Preclinical Metabolism, Pharmacokinetics and In Vivo Analysis of New Blood-Brain-Barrier Penetrant Fingolimod Analogues: FTY720-C2 and FTY720-Mitoxy” (PLoS ONE, 2016):

Columns and labels:
[1] = Metabolite profiling and identification in rat hepatocytes; assay type: in vitro ADME, rat (Sprague Dawley); design: key to Source (peak identified in rat hepatocytes): R = Rat; hr = Human; lowercase letter indicates low abundance; h: lowercase letter indicates low abundance; details: for phosphorylated metabolites / parent peak after 2 hr incubation: rat hepatocytes; for parent peak after 2 hr incubation: 1 μM
Method: (§1) Cryopreserved hepatocytes were grown in culture and incubations were performed to generate samples to measure the formation of FTY720-C2 and FTY720-Mitoxy metabolites. Incubations of 1 mL medium containing 1 million cells and 1 μM of FTY720-C2 and FTY720-Mitoxy were conducted at 37° C in a 5% CO2 incubator for 0, 1 and 2 hr, with gentle shaking. Positive control incubations used a cocktail solution containing 10 μM testosterone and 10 μM diclofenac performed for 0, 1 and 2 hr, under similar conditions to confirm the metabolic activity of the hepatocytes. The reactions were terminated by adding 2 mL acetonitrile containing 0.02% formic acid, and thoroughly mixing with gentle vortexing. Samples were transferred into 6 mL vials and stored in the freezer (-70°C) overnight for protein precipitation. Following overnight precipitations, samples were centrifuged at 3,000 rpm for 10 min to pellet proteins. Supernatants were transferred into clean 6 mL vials and evaporated to dryness using a TurboVap concentrator system. Samples were reconstituted using 600 μL 20% acetonitrile in water, briefly vortexed to resuspend, then aliquoted for LC-MS/MS analysis. Controls incubations also included “No drug control” and “no cell control” samples treated in a similar manner as test article samples.
(§2) Metabolite profiling and identification experiments were conducted by LC-MS/MS, composed of an HPLC system consisting of an Agilent Technologies 1200 Series Model G1322A Degasser, Agilent Technologies 1200 Series Model G1312A Binary Pump, Shimadzu HTc autosampler, and Valco Model E60 Flow Diversion Valve, and coupled to an API 4000 mass spectrometer. Separations were accomplished on a Gemini C18 column (150 × 2.0 mm, 5-μm particles; Phenomenex Inc., Torrance, CA), preceded by a SecurityGuard C18 guard column (4.0 × 2.0 mm; Phenomenex Inc.). A two-component mobile phase, consisted of a linear gradient of water containing 0.5% formic acid (v/v) and methanol:acetonitrile (1:1, v/v) containing 0.5% formic acid (v/v), was pumped at 0.3 mL/min. The first 4 min of flow was diverted away from the mass spectrometer. Analysis of the positive control samples was conducted with an HPLC system consisting of two Shimadzu LC-10ATvp pumps and a LEAP Pal autosampler. Separations were accomplished on a Luna C8(2) column (50 × 2.0 mm, 3-μm particles; Phenomenex Inc., Torrance, CA), preceded by a SecurityGuard C18 column (4.0 × 2.0 mm; Phenomenex Inc.). Separation was accomplished with a gradient of water containing 0.2% formic acid and 0.012% NH4OH (v/v) versus acetonitrile at an initial rate of 0.7 mL/min. An API 4000 QTrap mass spectrometer (AB Sciex, Foster City, CA) was used for analysis of positive control samples. Each mass spectrometer used was equipped with an electrospray ionization source and operated in the positive ionization mode. Metabolite identification experiments were performed by recording full scan mass spectral data (Q1MS) for all samples, and selected samples were analyzed to obtain product ion spectra (MS/MS) of test article metabolites identified in the full scan mass spectral data.

[2] = Metabolite profiling and identification in human hepatocytes; assay type: in vitro ADME; design: key to Source (peak identified in human hepatocytes): R = Rat; hr = Human; lowercase letter indicates low abundance; h: lowercase letter indicates low abundance; details: for phosphorylated metabolites / parent peak after 2 hr incubation: human hepatocytes; for parent peak after 2 hr incubation: 1 μM
Method: as §1, §2

[3] = Metabolic stability (intrinsic clearance) in rat liver microsomes; assay type: in vitro ADME, rat (Sprague-Dawley); details: for microsomal CLint at 1 μM: Sprague-Dawley, pH 7.4, 0.1 mg/mL protein, mean of two determinations; for microsomal CLint at 1 μM / intrinsic clearance interpreted in words / percent of the remaining compound: rat liver microsomes; for percent of the remaining compound: after 60 minute incubation; for Clint in rat liver microsomes relative to human liver microsomes: rat vs human liver microsomes
Method: Liver microsomal incubations contained 0.1mg/mL microsomal proteins and 1 μM of FTY720-C2 or FTY720-Mitoxy in 100 mM potassium phosphate buffer (pH 7.4) ± an NADPH regenerating system (3.5 mM glucose 6-phosphate, 1.3 mM NADP^+, and 0.4 units/mL glucose-6-phosphate dehydrogenase). Following incubations, reactions were terminated for analysis after 0, 10, 20, 30, and 60 min by the addition of acetonitrile containing C17 sphingosine (300 ng/mL) as the internal standard. Samples were vigorously mixed and centrifuged at 3,400 rpm for 10 min to pellet precipitated proteins. An aliquot of each supernatant was used for LC/MS analysis, for determination of the remaining FTY720-C2 and FTY720-Mitoxy. Similar incubations were performed using a cocktail solution containing 0.2 μM midazolam and 1 μM diclofenac to determine the metabolic activity of the microsomes as an additional control.
Samples resulting from liver microsomal incubations were analyzed by LC-MS/MS. Aliquots of the supernatants were injected onto an X-Bridge C18 column (2.1 × 50 mm, 3.5-μm particles) (Waters, Milford, MA), preceded by a SecurityGuard C18 guard column (4.0 × 2.0 mm; Phenomenex Inc.). Separations were accomplished with a gradient of 0.1% acetic acid in water (v/v) versus 0.1% acetic acid in acetonitrile: methanol (75:25, v/v) at a rate of 0.8 mL/min. The eluents were further applied into an equipped API 4000 QTrap mass spectrometer (AB Sciex, Foster City, CA) with electrospray ionization (ESI) interface by two coupled LC-10 AT pumps. Peak area ratios of FTY720-C2 or FTY720-Mitoxy against the C17 sphingosine internal standard were used to determine the amount of parent remaining compared to that at 0 min. The percent of FTY720-C2 or FTY720-Mitoxy remaining was calculated by dividing the peak area ratio obtained at each time point by that obtained at 0 min. The in vitro intrinsic clearance (CLint) was calculated by linear regression of the log percent of compound remaining versus time plots using Microsoft Excel, two independent experiments (n = 2) were performed for each compound and species. Then, the mean and standard deviation (SD), of two values for each condition, were calculated using Microsoft Excel with the “AVERAGE” and “STDEV” functions, respectively.

[4] = FTY720-Mitoxy incubation, Table 5

Row | Structure (SMILES) | Source (peak identified in rat hepatocytes) ([1]; FTY720-C2 incubation, Table 4) | phosphorylated metabolites [1] | parent peak after 2 hr incubation [1] | Source (peak identified in human hepatocytes) ([2]; FTY720-C2 incubation, Table 4) | phosphorylated metabolites [2] | parent peak after 2 hr incubation [2] | microsomal CLint at 1 μM [3] | intrinsic clearance interpreted in words [3] | percent of the remaining compound [3] | Clint in rat liver microsomes relative to human liver microsomes [3] | Source (peak identified in rat hepatocytes) [1, 4] | Source (peak identified in human hepatocytes) [2, 4]
1 | CCCCCCCCc1ccc(CCC(CO)(CO)NC(C)=O)cc1 [FTY720-C2, N-(1-hydroxy-2-(hydroxymethyl)-4-(4-octylphenyl)butan-2-yl)acetamide] | R | never detected | drastically diminished | H | never detected | more gradual | 79.5 ± 1.41 µL/min/mg | high | 1.0 ± 0% | ~ 4 fold | – | –
2 | CCCCCCCCc1ccc(CCC(CO)(CO)NC(=O)CC[P+](c2ccccc2)(c2ccccc2)c2ccccc2)cc1 [FTY720-Mitoxy, N-(1-hydroxy-2-(hydroxymethyl)-4-(4-octylphenyl)butan-2-yl)-3’-triphenylphosphoniumpropanamide] | – | never detected | most FTY720-Mitoxy was still unchanged | – | never detected | most FTY720-Mitoxy was still unchanged | 7.8 ± 1.98 µL/min/mg | low | 65.5 ± 4.9% | around half | R | H
